Measurements reported in article PMC8500670, “A selective WDR5 degrader inhibits acute myeloid leukemia in patient-derived mouse models” (Science translational medicine, 2021).

Tests used:
Assay in all cases: biochemical
Parameters in all cases: protein methyltransferase inhibition panel, single concentration, duplicate
[1] = biological target: T1, G9a (Homo sapiens, UniProt Q96KQ7)
T1 construct: gene EHMT2
T1 sequence (Q96KQ7 1-1210): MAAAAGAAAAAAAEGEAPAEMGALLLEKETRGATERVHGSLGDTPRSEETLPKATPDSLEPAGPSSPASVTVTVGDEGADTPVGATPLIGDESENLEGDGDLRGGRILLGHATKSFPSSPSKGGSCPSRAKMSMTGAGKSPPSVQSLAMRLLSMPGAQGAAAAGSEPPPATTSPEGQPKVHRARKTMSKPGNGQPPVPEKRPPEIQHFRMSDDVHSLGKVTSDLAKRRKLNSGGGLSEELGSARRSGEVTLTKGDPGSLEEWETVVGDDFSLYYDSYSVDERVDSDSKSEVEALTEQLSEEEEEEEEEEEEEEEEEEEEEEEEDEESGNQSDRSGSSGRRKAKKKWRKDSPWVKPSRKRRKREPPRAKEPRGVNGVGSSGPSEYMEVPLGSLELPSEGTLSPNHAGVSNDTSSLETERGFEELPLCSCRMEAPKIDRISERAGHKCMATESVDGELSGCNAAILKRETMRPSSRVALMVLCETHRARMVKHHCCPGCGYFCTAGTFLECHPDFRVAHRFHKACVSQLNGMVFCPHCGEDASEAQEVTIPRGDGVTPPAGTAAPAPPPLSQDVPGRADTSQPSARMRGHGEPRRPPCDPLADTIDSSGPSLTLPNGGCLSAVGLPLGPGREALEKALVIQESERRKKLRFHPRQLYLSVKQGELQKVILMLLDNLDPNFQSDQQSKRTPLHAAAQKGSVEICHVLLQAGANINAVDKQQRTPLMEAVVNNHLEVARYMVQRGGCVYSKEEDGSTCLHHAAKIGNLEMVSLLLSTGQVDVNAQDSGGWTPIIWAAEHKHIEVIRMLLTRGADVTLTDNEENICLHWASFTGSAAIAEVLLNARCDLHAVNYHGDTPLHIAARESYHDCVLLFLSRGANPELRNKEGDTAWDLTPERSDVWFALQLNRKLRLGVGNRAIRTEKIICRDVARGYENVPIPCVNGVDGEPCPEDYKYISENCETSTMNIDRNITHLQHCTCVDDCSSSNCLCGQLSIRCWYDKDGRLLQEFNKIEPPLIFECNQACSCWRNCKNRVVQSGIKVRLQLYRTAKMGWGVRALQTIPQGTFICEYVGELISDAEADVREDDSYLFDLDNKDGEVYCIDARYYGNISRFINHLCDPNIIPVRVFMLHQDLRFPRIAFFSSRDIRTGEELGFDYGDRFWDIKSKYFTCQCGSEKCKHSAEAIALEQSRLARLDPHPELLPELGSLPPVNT
Method: (§1) We next assessed selectivity of MS67 against 22 protein methyltransferases (table S2) and a broad panel of common drug targets including 45 kinases (table S3) and 44 G protein–coupled receptors (GPCR), ion channels, and transporters (table S4). […] We subsequently determined that MS67 had moderate binding affinity (Ki = 1.0 ± 0.8 μM) to Sigma 2 receptor (fig. S10).

[2] = biological target: NSD1 (Homo sapiens, UniProt Q96L73)
Method: as §1

[3] = biological target: T2, SET7/9 (Homo sapiens, UniProt Q8WTS6)
T2 construct: gene SETD7
T2 sequence (Q8WTS6 1-366): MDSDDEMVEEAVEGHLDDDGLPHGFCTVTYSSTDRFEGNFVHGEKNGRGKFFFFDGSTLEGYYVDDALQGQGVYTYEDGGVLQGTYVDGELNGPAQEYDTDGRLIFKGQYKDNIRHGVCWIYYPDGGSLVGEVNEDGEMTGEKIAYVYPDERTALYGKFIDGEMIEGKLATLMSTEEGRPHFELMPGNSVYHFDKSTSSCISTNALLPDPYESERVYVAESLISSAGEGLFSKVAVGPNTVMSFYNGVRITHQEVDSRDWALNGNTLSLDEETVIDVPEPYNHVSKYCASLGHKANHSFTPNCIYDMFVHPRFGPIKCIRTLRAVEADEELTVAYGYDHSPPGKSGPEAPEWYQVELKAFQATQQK
Method: as §1

[4] = biological target: T3, SUV39H1 (Homo sapiens, UniProt O43463)
T3 sequence (O43463 1-412): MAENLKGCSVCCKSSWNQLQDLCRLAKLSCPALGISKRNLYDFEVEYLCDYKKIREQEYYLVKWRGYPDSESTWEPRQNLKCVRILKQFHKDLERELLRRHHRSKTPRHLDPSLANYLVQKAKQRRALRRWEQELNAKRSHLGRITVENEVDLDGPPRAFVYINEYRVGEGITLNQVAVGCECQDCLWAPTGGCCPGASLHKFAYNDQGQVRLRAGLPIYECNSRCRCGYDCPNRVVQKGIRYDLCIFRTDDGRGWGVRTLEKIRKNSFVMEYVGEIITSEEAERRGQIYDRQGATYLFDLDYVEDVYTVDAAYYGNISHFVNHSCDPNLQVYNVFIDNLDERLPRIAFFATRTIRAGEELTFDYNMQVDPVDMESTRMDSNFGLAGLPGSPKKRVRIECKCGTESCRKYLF
Method: as §1

[5] = biological target: SUV39H2 (Homo sapiens, UniProt Q9H5I1)
Method: as §1

Measured: inhibition at 10 µM

Chain of NSD1 (Q96L73 whole entry): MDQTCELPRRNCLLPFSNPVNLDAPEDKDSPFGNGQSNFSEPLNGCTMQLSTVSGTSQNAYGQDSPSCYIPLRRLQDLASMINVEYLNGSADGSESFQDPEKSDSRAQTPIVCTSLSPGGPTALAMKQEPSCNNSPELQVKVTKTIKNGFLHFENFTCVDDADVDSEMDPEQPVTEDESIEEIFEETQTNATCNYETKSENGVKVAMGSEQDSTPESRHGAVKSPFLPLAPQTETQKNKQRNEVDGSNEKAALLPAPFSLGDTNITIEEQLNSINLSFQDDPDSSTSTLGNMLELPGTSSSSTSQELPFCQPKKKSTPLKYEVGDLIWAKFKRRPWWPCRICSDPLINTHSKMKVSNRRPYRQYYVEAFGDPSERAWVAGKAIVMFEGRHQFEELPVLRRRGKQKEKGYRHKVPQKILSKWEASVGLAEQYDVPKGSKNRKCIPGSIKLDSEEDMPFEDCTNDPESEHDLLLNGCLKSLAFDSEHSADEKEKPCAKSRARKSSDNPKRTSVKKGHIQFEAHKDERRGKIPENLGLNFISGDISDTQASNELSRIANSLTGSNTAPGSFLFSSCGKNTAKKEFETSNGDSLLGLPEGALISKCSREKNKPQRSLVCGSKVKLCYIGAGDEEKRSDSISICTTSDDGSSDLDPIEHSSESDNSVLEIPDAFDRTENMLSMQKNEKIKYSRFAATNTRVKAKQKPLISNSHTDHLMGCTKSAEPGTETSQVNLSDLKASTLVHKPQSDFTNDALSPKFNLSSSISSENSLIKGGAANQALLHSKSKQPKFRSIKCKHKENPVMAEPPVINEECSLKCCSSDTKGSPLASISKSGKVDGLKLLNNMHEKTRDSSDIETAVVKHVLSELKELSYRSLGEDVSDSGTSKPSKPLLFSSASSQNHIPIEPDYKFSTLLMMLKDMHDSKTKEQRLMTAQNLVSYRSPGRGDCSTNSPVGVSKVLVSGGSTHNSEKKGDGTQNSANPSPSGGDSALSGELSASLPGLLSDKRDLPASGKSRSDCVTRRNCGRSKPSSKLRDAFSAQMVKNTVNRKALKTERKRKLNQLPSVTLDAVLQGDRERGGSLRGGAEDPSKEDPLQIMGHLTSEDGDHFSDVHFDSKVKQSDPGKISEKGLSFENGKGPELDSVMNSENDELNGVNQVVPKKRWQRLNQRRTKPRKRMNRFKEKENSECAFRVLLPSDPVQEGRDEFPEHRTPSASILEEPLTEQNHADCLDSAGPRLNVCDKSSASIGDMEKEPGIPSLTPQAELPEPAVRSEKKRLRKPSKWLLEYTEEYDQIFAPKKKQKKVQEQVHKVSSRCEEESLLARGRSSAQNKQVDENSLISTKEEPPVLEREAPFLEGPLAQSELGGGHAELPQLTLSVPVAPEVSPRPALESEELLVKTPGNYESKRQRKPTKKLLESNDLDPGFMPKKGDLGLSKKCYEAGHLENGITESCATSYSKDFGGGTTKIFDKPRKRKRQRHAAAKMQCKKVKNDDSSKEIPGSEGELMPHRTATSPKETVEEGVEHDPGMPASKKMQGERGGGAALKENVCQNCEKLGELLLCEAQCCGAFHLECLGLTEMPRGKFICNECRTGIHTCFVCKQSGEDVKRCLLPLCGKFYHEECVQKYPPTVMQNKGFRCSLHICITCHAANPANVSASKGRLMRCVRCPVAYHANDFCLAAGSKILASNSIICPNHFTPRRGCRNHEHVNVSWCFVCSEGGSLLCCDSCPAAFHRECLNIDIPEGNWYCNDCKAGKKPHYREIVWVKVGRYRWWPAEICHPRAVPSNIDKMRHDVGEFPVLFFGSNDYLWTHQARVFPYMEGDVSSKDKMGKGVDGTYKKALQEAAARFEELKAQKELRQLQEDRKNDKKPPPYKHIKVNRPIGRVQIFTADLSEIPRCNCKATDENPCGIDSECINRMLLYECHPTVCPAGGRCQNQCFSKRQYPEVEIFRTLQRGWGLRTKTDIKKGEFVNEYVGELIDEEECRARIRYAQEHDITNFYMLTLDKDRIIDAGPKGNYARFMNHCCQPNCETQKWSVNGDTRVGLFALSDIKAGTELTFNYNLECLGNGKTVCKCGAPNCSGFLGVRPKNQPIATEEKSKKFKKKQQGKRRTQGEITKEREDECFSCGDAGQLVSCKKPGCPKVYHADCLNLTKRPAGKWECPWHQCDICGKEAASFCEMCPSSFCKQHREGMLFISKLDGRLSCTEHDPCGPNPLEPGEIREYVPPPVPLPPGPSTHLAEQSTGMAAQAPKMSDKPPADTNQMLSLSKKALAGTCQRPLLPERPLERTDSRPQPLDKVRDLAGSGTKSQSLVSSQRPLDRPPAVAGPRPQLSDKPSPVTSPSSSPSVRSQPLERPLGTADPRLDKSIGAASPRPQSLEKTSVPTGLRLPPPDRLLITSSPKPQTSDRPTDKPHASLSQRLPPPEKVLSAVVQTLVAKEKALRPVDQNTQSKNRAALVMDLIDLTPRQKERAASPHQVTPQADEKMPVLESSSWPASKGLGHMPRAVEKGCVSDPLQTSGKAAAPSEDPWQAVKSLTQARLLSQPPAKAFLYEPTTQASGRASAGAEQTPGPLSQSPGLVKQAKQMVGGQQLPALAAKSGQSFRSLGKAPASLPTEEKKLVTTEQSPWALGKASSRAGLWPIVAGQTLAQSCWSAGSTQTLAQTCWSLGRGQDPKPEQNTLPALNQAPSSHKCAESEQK
Chain of SUV39H2 (Q9H5I1 whole entry): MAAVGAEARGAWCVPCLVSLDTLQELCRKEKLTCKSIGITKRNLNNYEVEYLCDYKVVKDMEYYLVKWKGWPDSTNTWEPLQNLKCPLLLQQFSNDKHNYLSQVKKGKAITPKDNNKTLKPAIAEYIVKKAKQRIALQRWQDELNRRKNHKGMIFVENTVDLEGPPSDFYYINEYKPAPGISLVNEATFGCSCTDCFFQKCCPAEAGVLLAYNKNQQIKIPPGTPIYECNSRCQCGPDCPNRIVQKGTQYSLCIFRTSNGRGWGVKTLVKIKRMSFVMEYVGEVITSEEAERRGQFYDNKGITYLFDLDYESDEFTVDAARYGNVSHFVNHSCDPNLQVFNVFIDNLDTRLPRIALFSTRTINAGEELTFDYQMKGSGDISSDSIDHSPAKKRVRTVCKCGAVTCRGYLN

Cc1ncsc1-c1ccc([C@H](C)NC(=O)[C@@H]2C[C@@H](O)CN2C(=O)[C@@H](NC(=O)CNC(=O)c2ccc(F)c(-c3ccc(N4C[C@@H](C)N(C)[C@@H](C)C4)c(NC(=O)c4c[nH]c(=O)cc4C(F)(F)F)c3)c2)C(C)(C)C)cc1 [MS67]
< 10%: all assays above
